Experimental data as given in patent US20020137929A1, “1 - (3-heterocyclylphenyl) isothiourea, -isourea, -guanidine and -amidine herbicidal agents” (Intellectual Property Department, BASF Aktiengesellschaft, priority 1998, published 2002).

How the values were obtained:
[1] = test system: IPOSS (Morningglory Spp.); test: Postemergence herbicidal evaluation; format: in vivo, Ipomoea Spp.
Method: In the tests, seedling plants are grown in jiffy flats for about two weeks. The test compounds are dispersed in 50/50 acetone/water mixtures containing 0.5% TWEEN®20, a polyoxyethylene sorbitan monolaurate surfactant of Atlas Chemical Industries, in sufficient quantities to provide the equivalent of about 0.0156 kg to 0.500 kg per hectare of active compound when applied to the plants through a spray nozzle operating at 40 psi for a predetermined time. After spraying, the plants are placed on greenhouse benches and are cared for in accordance with conventional greenhouse procedures. From four to five weeks after treatment, the seedling plants are examined and rated according to the rating system set forth below. Where more than one test is involved for a given compound, the data are averaged.
Plant species employed in these evaluations are reported by header abbreviation, common name and scientific name.
(§1) Results of herbicide evaluation are expressed on a rating scale (0-9). The scale is based upon a visual observation of plant stand, vigor, malformation, size, chlorosis and overall plant appearance as compared with a control.

[2] = test system: GLXMAW (Soybean, Williams); test: Preemergence herbicidal evaluation; format: in vivo, Glycine max, (L.) Merr. cv Williams; conditions: rated 4-5 weeks after treatment
How it was run: (§2)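 Visual 0-9 rating vs control (stand, vigor, malformation, size, chlorosis, overall appearance), scored 4-5 wk after spraying. Seeded soil cups were treated preemergence with compound in aqueous acetone, ~0.0156-0.500 kg/ha equivalent.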

[3] = test system: SAGPY (Arrowhead (Pygmaea)); test: Postemergence weed control under flooded paddy conditions; format: in vivo, Sagittaria pygmaea; conditions: postemergence weeds, 3-4 weeks after treatment
How it was run: (§3)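 Flood-water application, about 0.0313–0.500 kg/ha a.i. in aqueous/acetone 50/50 v/v; water depth 1.5–3 cm throughout. Weeds 3–5 cm, rice 1.5–2.5 leaf. Greenhouse; 0–9 visual rating vs control at 3–4 wk.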

[4] = test system: IPOSS (Morningglory Spp.); test: Preemergence herbicidal evaluation; format: in vivo, Ipomoea Spp.; conditions: rated 4-5 weeks after treatment
From the text: as §1
The preemergence herbicidal activity of the test compounds of the present invention is exemplified by the following tests in which the seeds of a variety of monocotyledonous and dicotyledonous plants are separately mixed with potting soil and planted on top of approximately one inch of soil in separate pint cups. After planting, the cups are sprayed with the selected aqueous acetone solution containing test compound in sufficient quantity to provide the equivalent of about 0.0156 to 0.500 kg per hectare of test compound per cup. The treated cups are then placed on greenhouse benches, watered and cared for in accordance with conventional greenhouse procedures. From four to five weeks after treatment, the tests are terminated and each cup is examined and rated according to the rating system provided in Example 37.
The compounds evaluated are reported by compound number given in Example 37.

[5] = test system: ZEAMX (Corn, Field); test: Postemergence herbicidal evaluation; format: in vivo, Zea mays; conditions: postemergence
How it was run: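 Scores (0–9) reflect plant stand, vigor, malformation, size, chlorosis and general appearance relative to control, read 4 to 5 weeks after treatment and averaged where tests were repeated. Application: about 0.0156–0.500 kg/ha sprayed at 40 psi onto two-week seedlings.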

[6] = test system: ABUTH (Velvetleaf); test: Preemergence herbicidal evaluation; format: in vivo, Abutilon theophrasti; conditions: rated 4-5 weeks after treatment
How it was run: as §2

[7] = test system: AMBEL (Ragweed, Common); test: Preemergence herbicidal evaluation; format: in vivo, Ambrosia artemisifolia; conditions: rated 4-5 weeks after treatment
How it was run: as §2

[8] = test system: MOOVA (Monochoria); test: Postemergence weed control under flooded paddy conditions; format: in vivo, Monochoria vaginalis; conditions: postemergence weeds, 3-4 weeks after treatment
How it was run: as §3

C=CCN1C(=O)CSC1=Nc1cc(N2C(=O)C3=C(CCCC3)C2=O)c(F)cc1Cl [Compound 2, N-{5-[(3-allyl-4-oxo-2-thiazolidinylidene)amino]-4-chloro-2-fluorophenyl}-1-cyclohexene-1,2-dicarboximide]
2.0: Herbicidal rating MOOVA ([8]; rate 0.0313 kg/ha)
9.0: IPOSS herbicidal rating ([1]; rate 0.2500 kg/ha) | IPOSS herbicidal rating ([1]; rate 0.5000 kg/ha) | Herbicidal rating MOOVA ([8]; rate 0.2500 kg/ha) | Herbicidal rating MOOVA ([8]; rate 0.5000 kg/ha)
3.5: ZEAMX herbicidal rating ([5]; rate 0.1250 kg/ha) | ZEAMX herbicidal rating ([5]; rate 0.2500 kg/ha)
6.0: IPOSS herbicidal rating ([1]; rate 0.1250 kg/ha)
4.5: Herbicidal rating MOOVA ([8]; rate 0.0625 kg/ha)
3.0: ZEAMX herbicidal rating ([5]; rate 0.0157 kg/ha) | ZEAMX herbicidal rating ([5]; rate 0.0313 kg/ha) | ZEAMX herbicidal rating ([5]; rate 0.0625 kg/ha)
0.0: GLXMAW preemergence herbicidal rating ([2]; rate 0.0313 kg/ha) | GLXMAW preemergence herbicidal rating ([2]; rate 0.0625 kg/ha) | GLXMAW preemergence herbicidal rating ([2]; rate 0.1250 kg/ha) | GLXMAW preemergence herbicidal rating ([2]; rate 0.2500 kg/ha) | Herbicidal rating SAGPY ([3]; rate 0.0313 kg/ha) | Herbicidal rating SAGPY ([3]; rate 0.0625 kg/ha) | Herbicidal rating SAGPY ([3]; rate 0.1250 kg/ha) | Herbicidal rating SAGPY ([3]; rate 0.2500 kg/ha) | IPOSS preemergence herbicidal rating ([4]; rate 0.0313 kg/ha) | IPOSS preemergence herbicidal rating ([4]; rate 0.0625 kg/ha) | IPOSS preemergence herbicidal rating ([4]; rate 0.1250 kg/ha) | IPOSS preemergence herbicidal rating ([4]; rate 0.2500 kg/ha) | IPOSS preemergence herbicidal rating ([4]; rate 0.5000 kg/ha) | ABUTH preemergence herbicidal rating ([6]; rate 0.0313 kg/ha) | ABUTH preemergence herbicidal rating ([6]; rate 0.0625 kg/ha) | AMBEL preemergence herbicidal rating ([7]; rate 0.0313 kg/ha) | AMBEL preemergence herbicidal rating ([7]; rate 0.0625 kg/ha) | AMBEL preemergence herbicidal rating ([7]; rate 0.1250 kg/ha) | AMBEL preemergence herbicidal rating ([7]; rate 0.2500 kg/ha) | AMBEL preemergence herbicidal rating ([7]; rate 0.5000 kg/ha)
4.0: IPOSS herbicidal rating ([1]; rate 0.0157 kg/ha) | IPOSS herbicidal rating ([1]; rate 0.0313 kg/ha) | IPOSS herbicidal rating ([1]; rate 0.0625 kg/ha) | ZEAMX herbicidal rating ([5]; rate 0.5000 kg/ha) | ABUTH preemergence herbicidal rating ([6]; rate 0.5000 kg/ha)
1.0: GLXMAW preemergence herbicidal rating ([2]; rate 0.5000 kg/ha) | Herbicidal rating SAGPY ([3]; rate 0.5000 kg/ha)
5.5: Herbicidal rating MOOVA ([8]; rate 0.1250 kg/ha)

CN1C(=O)CS/C1=N/c1cc(-n2c(=O)cc(C(F)(F)F)n(C)c2=O)c(F)cc1Cl [Compound 7]
6.5: GLXMAW preemergence herbicidal rating ([2]; rate 0.0313 kg/ha)
5.5: Herbicidal rating SAGPY ([3]; rate 0.0625 kg/ha)
5.0: GLXMAW preemergence herbicidal rating ([2]; rate 0.0157 kg/ha) | ZEAMX herbicidal rating ([5]; rate 0.0157 kg/ha) | AMBEL preemergence herbicidal rating ([7]; rate 0.0157 kg/ha)
7.5: GLXMAW preemergence herbicidal rating ([2]; rate 0.0625 kg/ha) | Herbicidal rating SAGPY ([3]; rate 0.1250 kg/ha)
7.0: IPOSS herbicidal rating ([1]; rate 0.0313 kg/ha) | ZEAMX herbicidal rating ([5]; rate 0.0625 kg/ha) | ZEAMX herbicidal rating ([5]; rate 0.1250 kg/ha)
3.0: Herbicidal rating SAGPY ([3]; rate 0.0313 kg/ha)
8.0: GLXMAW preemergence herbicidal rating ([2]; rate 0.1250 kg/ha)
9.0: IPOSS herbicidal rating ([1]; rate 0.0625 kg/ha) | IPOSS preemergence herbicidal rating ([4]; rate 0.0157 kg/ha) | IPOSS preemergence herbicidal rating ([4]; rate 0.0313 kg/ha) | IPOSS preemergence herbicidal rating ([4]; rate 0.0625 kg/ha) | IPOSS preemergence herbicidal rating ([4]; rate 0.1250 kg/ha) | IPOSS preemergence herbicidal rating ([4]; rate 0.2500 kg/ha) | ABUTH preemergence herbicidal rating ([6]; rate 0.0157 kg/ha) | ABUTH preemergence herbicidal rating ([6]; rate 0.0313 kg/ha) | ABUTH preemergence herbicidal rating ([6]; rate 0.0625 kg/ha) | ABUTH preemergence herbicidal rating ([6]; rate 0.1250 kg/ha) | ABUTH preemergence herbicidal rating ([6]; rate 0.2500 kg/ha) | AMBEL preemergence herbicidal rating ([7]; rate 0.0625 kg/ha) | AMBEL preemergence herbicidal rating ([7]; rate 0.1250 kg/ha) | AMBEL preemergence herbicidal rating ([7]; rate 0.2500 kg/ha) | Herbicidal rating MOOVA ([8]; rate 0.0313 kg/ha) | Herbicidal rating MOOVA ([8]; rate 0.0625 kg/ha) | Herbicidal rating MOOVA ([8]; rate 0.1250 kg/ha) | Herbicidal rating MOOVA ([8]; rate 0.2500 kg/ha)
6.0: IPOSS herbicidal rating ([1]; rate 0.0157 kg/ha) | ZEAMX herbicidal rating ([5]; rate 0.0313 kg/ha)
8.5: GLXMAW preemergence herbicidal rating ([2]; rate 0.2500 kg/ha) | Herbicidal rating SAGPY ([3]; rate 0.2500 kg/ha) | AMBEL preemergence herbicidal rating ([7]; rate 0.0313 kg/ha)
